In assay [1] the target is T1, human indoleamine 2,3-dioxygenase 1 (hIDO1) (Homo sapiens, UniProt P14902).
T1 construct: His tag (N); purchased BPS Bioscience, San Diego, Calif., USA; host or cells: E. coli
As to the kind of experiment: In-vitro human indoleamine 2,3-dioxygenase 1 (IDO1) enzyme assay. The conditions noted are these: for pIC50: hIDO1 enzyme; for inhibition at 1 µM: hIDO1 enzyme at 1.0 μM concentration; for inhibition at 10 µM: hIDO1 enzyme at 10.0 μM concentration. It counts as biochemical. The procedure:
In-vitro human indoleamine 2,3-dioxygenase 1 (IDO1) enzyme assay: In the in-vitro human indoleamine 2,3-dioxygenase 1 (hIDO1) enzyme assay for screening inhibitor compounds, hIDO1 with an N-terminal histidine tag expressed and purified from E. coli (BPS Bioscience, San Diego, Calif., USA) was used. All other materials were procured from Sigma-Aldrich, St. Louis, Mo., USA.
The assay method for monitoring the conversion of L-tryptophan to N-formylkynurenine by hlDO1 was carried out as follows. hlDO1 (50 ng) was incubated with tryptophan (80 μM) in the presence of ascorbic acid (10 mM), methylene blue (10 μM), catalase (100 μg/ml) and 0.01% Tween-20 in sodium phosphate buffer (50 mM; pH 6.5) at 37° C. for 60 min. The reaction was terminated with 200 mM piperidine (PIP) and further incubated at about 65° C. for about 20 minutes to convert N-formylkynurenine (NFK) to NFK-PIP. The reaction mixture was then incubated at room temperature for about 1 hour. The fluorescence intensity was read in a fluorescence microplate reader at an excitation wavelength of 400 nm and emission wavelength of 500 nm. Percent inhibition at each concentration of test compounds was determined by estimating the decrease in NFK-PIP. Data were analyzed using nonlinear regression to generate IC50 values using Graph Pad Prism® 6.

The target in assay [2] is T2, human tryptophan 2,3-dioxygenase (hTDO) (Homo sapiens, UniProt P48775).
T2 construct: His tag (N); purchased BPS Bioscience, San Diego, Calif., USA; host or cells: E. coli
As to the kind of experiment: In-vitro human tryptophan 2,3-dioxygenase (TDO) enzyme assay. It counts as biochemical. The conditions noted are these: hTDO enzyme at 1.0 μM concentration. The procedure: In the in-vitro human tryptophan 2,3-dioxygenase (hTDO) enzyme assay for screening inhibitor compounds, hTDO with an N-terminal histidine tag expressed and purified from E. coli (BPS Bioscience, San Diego, Calif., USA) was used. All other materials were procured from Sigma-Aldrich, St. Louis, Mo., USA.
The assay monitoring method for the conversion of L-tryptophan to N-formylkynurenine by hTDO was carried out as follows. hTDO (125 ng) was incubated in the presence of 200 μM L-tryptophan, 100 mM sodium phosphate buffer (pH 7.0), 0.01% Tween-20 and 100 μM ascorbic acid at about 37° C. for about 60 minutes. The reaction was terminated with 200 mM piperidine (PIP) and further incubated at about 65° C. for about 20 minutes to convert N-formylkynurenine (NFK) to NFK-PIP. The reaction mixture was then incubated at room temperature for about 75 minutes. The fluorescence intensity was read in a fluorescence microplate reader at an excitation wavelength of 400 nm and emission wavelength of 500 nm. Percent inhibition at each concentration of test compounds was determined by estimating the decrease in NFK-PIP. Data were analyzed using nonlinear regression to generate IC50 values using Graph Pad Prism® 6.

Our source for the IC50 and inhibition values is US20190031665A1, “DERIVATIVES OF PYRROLOIMIDAZOLE OR ANALOGUES THEREOF WHICH ARE USEFUL FOR THE TREATMENT OF INTER ALIA CANCER” (EMCURE PHARMACEUTICALS LIMITED, priority 2016, published 2019).

pIC50: −log10 of the molar value. A value given as a limit tells only on which side of the number the result lay.

T1 sequence (P14902 whole entry): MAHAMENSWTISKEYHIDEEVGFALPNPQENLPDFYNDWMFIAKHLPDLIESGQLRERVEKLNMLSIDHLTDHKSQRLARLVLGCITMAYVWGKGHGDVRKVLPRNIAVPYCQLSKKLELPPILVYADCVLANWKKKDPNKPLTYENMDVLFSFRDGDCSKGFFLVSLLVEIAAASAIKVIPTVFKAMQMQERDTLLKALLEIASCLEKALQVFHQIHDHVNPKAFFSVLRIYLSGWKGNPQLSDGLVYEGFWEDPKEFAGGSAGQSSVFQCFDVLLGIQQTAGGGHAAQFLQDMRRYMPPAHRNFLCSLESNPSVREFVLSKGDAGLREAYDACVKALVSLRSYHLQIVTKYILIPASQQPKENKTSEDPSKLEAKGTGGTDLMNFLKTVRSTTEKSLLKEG
T2 sequence (P48775 whole entry): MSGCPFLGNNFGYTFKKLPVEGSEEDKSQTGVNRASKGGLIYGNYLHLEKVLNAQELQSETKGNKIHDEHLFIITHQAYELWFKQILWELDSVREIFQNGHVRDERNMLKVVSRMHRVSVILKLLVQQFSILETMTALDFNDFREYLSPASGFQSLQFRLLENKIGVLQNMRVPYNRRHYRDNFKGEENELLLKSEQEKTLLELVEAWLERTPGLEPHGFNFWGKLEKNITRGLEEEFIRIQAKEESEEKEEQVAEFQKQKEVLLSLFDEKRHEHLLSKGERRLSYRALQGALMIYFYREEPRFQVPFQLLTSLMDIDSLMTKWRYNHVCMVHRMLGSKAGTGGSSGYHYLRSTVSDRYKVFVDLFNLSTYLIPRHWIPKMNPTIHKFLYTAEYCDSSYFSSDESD

As a reminder, the pIC50 is the negative decadic logarithm of the IC50, by convention in mol/L. Read a low pIC50 as a high IC50. In general, inhibition refers to the drop in the measured response relative to a control, in per cent. Read a high inhibition as a strong effect. In the case of `CC1=C(c2ccccc2)C(CC(=O)c2ccc(-c3ccccc3)cc2)n2cncc21` (stereo not drawn) [Example 41, 1-([1,1′-biphenyl]-4-yl)-2-(7-methyl-6-phenyl-5H-pyrrolo[1,2-c]imidazol-5-yl)ethan-1-one], in assay [1], the pIC50 was > 6.30, the inhibition at 1 µM is ≥ 50% and the inhibition at 10 µM was ≥ 50%. Besides, the inhibition at 1 µM in assay [2] is ≥ 50%.

As to `CC1=C(c2ccccc2)C(CC(O)c2ccc(-c3ccccc3)cc2)n2cncc21` (stereo not drawn) [Example 44, 1-([1,1′-biphenyl]-4-yl)-2-(7-methyl-6-phenyl-5H-pyrrolo[1,2-c]imidazol-5-yl)ethan-1-ol], in assay [1], the inhibition at 1 µM was ≥ 50% and the inhibition at 10 µM is ≥ 50%. In addition, the inhibition at 1 µM in assay [2] was ≥ 50%.

In the case of `CC1=C(c2ccccc2)C(CC(=O)c2ccsc2)n2cncc21` (stereo not drawn) [Example 45, 2-(7-methyl-6-phenyl-5H-pyrrolo[1,2-c]imidazol-5-yl)-1-(thiophen-3-yl)ethan-1-one], in assay [1], the inhibition at 1 µM was ≤ 50% and the inhibition at 10 µM is ≥ 50%. For the same molecule, in assay [2], the inhibition at 1 µM is ≥ 50%.

With `CC1=C(c2ccccc2)C(CC(=O)c2ccc(N(C)C)cc2)n2cncc21` (stereo not drawn) [Example 46, 1-(4-(dimethylamino)phenyl)-2-(7-methyl-6-phenyl-5H-pyrrolo[1,2-c]imidazol-5-yl)ethan-1-one], in assay [1], the inhibition at 1 µM was ≤ 50% and the inhibition at 10 µM is ≥ 50%. Further, the inhibition at 1 µM in assay [2] is ≥ 50%.

As to `CC1=C(c2ccccc2)C(CC(=O)c2ccc3c(c2)CCCC3)n2cncc21` (stereo not drawn) [Example 47, 2-(7-methyl-6-phenyl-5H-pyrrolo[1,2-c]imidazol-5-yl)-1-(5,6,7,8-tetrahydronaphthalen-2-yl)ethan-1-one], the inhibition at 1 µM in assay [1] and in assay [2] was ≥ 50% throughout. Moreover, the inhibition at 10 µM in assay [1] was ≥ 50%.

Consider `CC1=C(c2ccccc2)C(CC(=O)c2ccc(Oc3ccccc3)cc2)n2cncc21` (stereo not drawn) [Example 48, 2-(7-methyl-6-phenyl-5H-pyrrolo[1,2-c]imidazol-5-yl)-1-(4-phenoxyphenyl)ethan-1-one], for which, in assay [1], the pIC50 was < 6.30, the inhibition at 1 µM was ≥ 50% and the inhibition at 10 µM was ≥ 50%. In assay [2], the inhibition at 1 µM is ≥ 50%.

Consider `CC1=C(c2ccccc2)C(CC(=O)c2ccc(N3CCOCC3)cc2)n2cncc21` (stereo not drawn) [Example 49, 2-(7-methyl-6-phenyl-5H-pyrrolo[1,2-c]imidazol-5-yl)-1-(4-morpholinophenyl)ethan-1-one], for which, in assay [1], the inhibition at 1 µM was ≤ 50% and the inhibition at 10 µM is ≥ 50%. Moreover, the inhibition at 1 µM in assay [2] is ≥ 50%.

Take `CC1=C(c2ccccc2)C(CC(=O)c2ccc(N3CCCCC3)cc2)n2cncc21` (stereo not drawn) [Example 50, 2-(7-methyl-6-phenyl-5H-pyrrolo[1,2-c]imidazol-5-yl)-1-(4-(piperidin-1-yl)phenyl)ethan-1-one]: in assay [1], the inhibition at 1 µM was ≤ 50% and the inhibition at 10 µM is ≥ 50%. The inhibition at 1 µM in assay [2] was ≥ 50%.

Turning to `CC1=C(c2ccccc2)C(CC(=O)c2ccc(Br)cc2)n2cncc21` (stereo not drawn) [Example 51, 1-(4-bromophenyl)-2-(7-methyl-6-phenyl-5H-pyrrolo[1,2-c]imidazol-5-yl)ethan-1-one], in assay [1], the pIC50 is < 6.30, the inhibition at 1 µM is ≥ 50% and the inhibition at 10 µM was ≥ 50%. In assay [2], the inhibition at 1 µM was ≥ 50%.

With `CC1=C(c2ccccc2)C(CC(O)c2ccc(Br)cc2)n2cncc21` (stereo not drawn) [Example 52, 1-(4-bromophenyl)-2-(7-methyl-6-phenyl-5H-pyrrolo[1,2-c]imidazol-5-yl)ethan-1-ol], in assay [1], the inhibition at 1 µM was ≤ 50% and the inhibition at 10 µM was ≥ 50%. For the same molecule, the inhibition at 1 µM in assay [2] is ≥ 50%.

As for `CC1=C(c2ccccc2)C(CC(=O)c2ccc(-c3ccncc3)cc2)n2cncc21` (stereo not drawn) [Example 53], in assay [1], the pIC50 is > 6.30, the inhibition at 1 µM was ≥ 50% and the inhibition at 10 µM was ≥ 50%. Further, the inhibition at 1 µM in assay [2] is ≥ 50%.

`CC1=C(c2ccccc2)C(CC(=O)c2ccc(-c3cncnc3)cc2)n2cncc21` (stereo not drawn) [Example 54]: the inhibition at 1 µM in assay [1] and in assay [2] was ≥ 50% throughout. For the same molecule, the inhibition at 10 µM in assay [1] was ≥ 50%.

For the molecule `CC1=C(c2ccccc2)C(CC(=O)c2ccc(-c3cccnc3)cc2)n2cncc21` (stereo not drawn) [Example 55], in assay [1], the pIC50 is > 6.30, the inhibition at 1 µM was ≥ 50% and the inhibition at 10 µM is ≥ 50%. The inhibition at 1 µM in assay [2] was ≥ 50%.

`CC1=C(c2ccccc2)C(CC(=O)c2ccc(-c3ccsc3)cc2)n2cncc21` (stereo not drawn) [Example 56]: in assay [1], the pIC50 is > 6.30, the inhibition at 1 µM was ≥ 50% and the inhibition at 10 µM was ≥ 50%. Also, the inhibition at 1 µM in assay [2] is ≤ 50%.

On to `CC1=C(c2ccccc2)C(CC(=O)c2ccc(-c3ccc(O)cc3)cc2)n2cncc21` (stereo not drawn) [Example 57], for which, in assay [1], the pIC50 was > 6.30, the inhibition at 1 µM was ≥ 50% and the inhibition at 10 µM was ≥ 50%. Besides, the inhibition at 1 µM in assay [2] was ≤ 50%.

Take `CC1=C(c2ccccc2)C(CC(=O)c2ccc(-c3ccccc3F)cc2)n2cncc21` (stereo not drawn) [Example 58]: in assay [1], the pIC50 is > 6.30, the inhibition at 1 µM is ≥ 50% and the inhibition at 10 µM is ≥ 50%. In addition, in assay [2], the inhibition at 1 µM was ≤ 50%.

As for `CC1=C(c2ccccc2)C(CC(O)c2ccc(-c3ccncc3)cc2)n2cncc21` (stereo not drawn) [Example 59], in assay [1], the inhibition at 1 µM was ≤ 50% and the inhibition at 10 µM was ≥ 50%. In addition, the inhibition at 1 µM in assay [2] is ≤ 50%.

With `CC1=C(c2ccccc2)C(CC(O)c2ccc(-c3ccsc3)cc2)n2cncc21` (stereo not drawn) [Example 60], the inhibition at 1 µM in assay [1] and in assay [2] was ≤ 50% throughout. For the same molecule, the inhibition at 10 µM in assay [1] is ≥ 50%.

Regarding `CC1=C(c2ccccc2)C(CC(=O)c2ccc(-c3ccc(C(F)(F)F)cc3)cc2)n2cncc21` (stereo not drawn) [Example 61], in assay [1], the inhibition at 1 µM is ≤ 50% and the inhibition at 10 µM was ≥ 50%. The inhibition at 1 µM in assay [2] was ≤ 50%.

In the case of `CC1=C(c2ccccc2)C(CC(=O)c2ccc(-c3ccc(C)cc3)cc2)n2cncc21` (stereo not drawn) [Example 62], in assay [1], the pIC50 is > 6.30, the inhibition at 1 µM was ≥ 50% and the inhibition at 10 µM is ≥ 50%. The inhibition at 1 µM in assay [2] is ≥ 50%.

Take `CC1=C(c2ccccc2)C(CC(=O)c2ccc(-c3ccc(F)cc3)cc2)n2cncc21` (stereo not drawn) [Example 63]: in assay [1], the inhibition at 1 µM was ≥ 50% and the inhibition at 10 µM was ≥ 50%. In assay [2], the inhibition at 1 µM was ≥ 50%.

Turning to `CC1=C(c2ccccc2)C(CC(=O)c2ccc(-c3ccc(C)s3)cc2)n2cncc21` (stereo not drawn) [Example 64], in assay [1], the pIC50 was > 6.30, the inhibition at 1 µM was ≥ 50% and the inhibition at 10 µM was ≥ 50%. Further, the inhibition at 1 µM in assay [2] was ≤ 50%.

On to `CC1=C(c2ccccc2)C(CC(=O)c2ccc(-c3ccc(-c4ccccc4)cc3)cc2)n2cncc21` (stereo not drawn) [Example 65], for which the inhibition at 1 µM in assay [1] and in assay [2] was ≤ 50% in each case. Further, in assay [1], the inhibition at 10 µM is ≤ 50%.

Regarding `CC1=C(c2ccccc2)C(CC(=O)c2ccc(-c3cnc[nH]3)cc2)n2cncc21` (stereo not drawn) [Example 67], in assay [1], the pIC50 is < 6.30, the inhibition at 1 µM was ≥ 50% and the inhibition at 10 µM was ≥ 50%. In addition, the inhibition at 1 µM in assay [2] is ≥ 50%.

As for `CC1=C(c2ccccc2)C(CC(=O)c2cccc(Br)c2)n2cncc21` (stereo not drawn) [Example 68, 1-(3-Bromo-phenyl)-2-(7-methyl-6-phenyl-5H-pyrrolo[1,2-c]imidazol-5-yl)-ethanone], in assay [1], the inhibition at 1 µM was ≥ 50% and the inhibition at 10 µM is ≥ 50%. The inhibition at 1 µM in assay [2] was ≥ 50%.

For `CC1=C(c2ccccc2)C(CC(=O)c2cccc(-c3ccccc3)c2)n2cncc21` (stereo not drawn) [Example 69], in assay [1], the pIC50 is < 6.30, the inhibition at 1 µM is ≥ 50% and the inhibition at 10 µM was ≥ 50%. Further, in assay [2], the inhibition at 1 µM is ≤ 50%.

On to `CC1=C(c2ccccc2)C(CC(=O)c2cccc(-c3ccccc3F)c2)n2cncc21` (stereo not drawn) [Example 70], for which, in assay [1], the inhibition at 1 µM is ≥ 50% and the inhibition at 10 µM was ≥ 50%. Besides, in assay [2], the inhibition at 1 µM is ≥ 50%.

With `CC1=C(c2ccccc2)C(CC(=O)c2ccc(C3CCCCC3)cc2)n2cncc21` (stereo not drawn) [Example 73], in assay [1], the inhibition at 1 µM is ≤ 50% and the inhibition at 10 µM is ≥ 50%. In addition, the inhibition at 1 µM in assay [2] was ≤ 50%.
